In BindingDB's records for doi:10.7270/Q2TX3CTT (Broad Institute, 2010):
Counter-ions that a name gives are not always drawn.

What follows are molecules tested against Glycogen synthase kinase-3 beta (Homo sapiens, UniProt P49841) (assay: GSK3beta kinase inhibitor potency, dose response, biochemical, luminescence, cell-free homogeneous, retest (AID 434954)).
Sequence of Glycogen synthase kinase-3 beta (P49841 whole entry): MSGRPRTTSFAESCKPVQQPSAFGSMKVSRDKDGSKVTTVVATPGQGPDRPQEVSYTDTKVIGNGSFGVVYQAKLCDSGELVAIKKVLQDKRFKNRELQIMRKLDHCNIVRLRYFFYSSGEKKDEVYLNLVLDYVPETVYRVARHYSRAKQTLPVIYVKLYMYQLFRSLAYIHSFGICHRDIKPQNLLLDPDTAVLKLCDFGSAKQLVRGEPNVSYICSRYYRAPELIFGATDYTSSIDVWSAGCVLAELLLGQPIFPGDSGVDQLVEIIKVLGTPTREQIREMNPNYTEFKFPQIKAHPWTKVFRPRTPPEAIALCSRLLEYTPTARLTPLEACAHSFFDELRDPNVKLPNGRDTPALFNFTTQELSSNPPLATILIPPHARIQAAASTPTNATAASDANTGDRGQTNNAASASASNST

SMILES | EC50 [µM]
C=CCNc1nc(N)c([N+](=O)[O-])c(Nc2cccc(Cl)c2)n1 [N4-(3-chlorophenyl)-5-nitro-N2-prop-2-enyl-pyrimidine-2,4,6-triamine] | 11.8
c1ccc(CSc2nnc(-c3cccnc3)o2)cc1 [3-(5-Benzylsulfanyl-[1,3,4]oxadiazol-2-yl)-pyridine] | > 300
COc1cccc(C(=O)Nc2ccc(C(=O)NCC(C)C)cc2)c1 [SMR000292523] | > 300
Cc1ccc(C(=O)N/N=C/c2ccc(-c3ccc([N+](=O)[O-])cc3)o2)cn1 [SMR000431371] | > 300
Cc1cccc(Nc2nc(N)c([N+](=O)[O-])c(N3CCOCC3)n2)c1 [6-Morpholin-4-yl-5-nitro-N*2*-m-tolyl-pyrimidine-2,4-diamine] | > 300
CN(Cc1c(C(=O)NN=Cc2cccc(F)c2)nnn1-c1nonc1N)c1ccccc1 [MLS001141039] | 15.6
Cc1ccc(C(=O)/C=C/c2ccc3ncccc3c2)cc1 [SMR000516943] | > 300
Cc1cc2nc(-c3cccnc3O)[nH]c2cc1C | 8.16
c1ccc(CCCNCC2COc3ccccc3O2)cc1 (stereo not given) | > 300
COc1ccc(-c2nn(-c3ccccc3)cc2CN=O)cc1OC [N-[[3-(3,4-dimethoxyphenyl)-1-phenylpyrazol-4-yl]methylidene]hydroxylamine] | 3.99
CCOc1cc(C2c3c(C)n[nH]c3C(=O)N2c2ccc(C)cc2)ccc1O (stereo not given) [SMR000035605] | > 300
O=C(Cc1ccc(Cl)cc1)Nc1ncc([N+](=O)[O-])s1 [2-(4-chlorophenyl)-N-(5-nitro-1,3-thiazol-2-yl)ethanamide] | 30.4
CCC(O)CNc1nc(SC)nc2sc3c(c12)CCN(C)C3 (stereo not given) | 1.75
O=C(CCS(=O)(=O)c1ccc(Br)cc1)Nc1ccc(Cl)cc1F [3-(4-bromophenyl)sulfonyl-N-(4-chloranyl-2-fluoranyl-phenyl)propanamide] | > 300
CCCn1nc(NC(=O)C2CCCO2)c2cc3cc(C)ccc3nc21 (stereo not given) [SMR000148635] | > 300
COc1ccc2c(c1)=C(NN1C(=O)c3ccccc3C1=O)C(=O)N=2 [2-[(5-methoxy-2-oxidanylidene-indol-3-yl)amino]isoindole-1,3-dione] | > 300
Cc1ccc2c(CN3CCN(Cc4ccccc4)CC3)cc(=O)oc2c1C [SMR000543581] | > 300
CCN1CCN(CCNC(=O)c2ccc3c(c2)NC(=O)/C(=C\c2ccc(OC)c(OC)c2)S3)CC1 [(2E)-2-[(3,4-dimethoxyphenyl)methylidene]-N-[2-(4-ethylpiperazin-1-yl)ethyl]-3-oxidanylidene-4H-1,4-benzothiazine-6-carboxamide] | 16.3
C=CCn1c(=O)c(C(=O)NCc2ccc(Cl)cc2)c(O)c2ccccc21 [N-[(4-chlorophenyl)methyl]-2-hydroxy-4-oxo-1-prop-2-enyl-3-quinolinecarboxamide] | > 300
CCc1ccc(C=NNC(=O)c2nnn(-c3nonc3N)c2CN2CCc3ccccc32)cc1 [1-(4-amino-1,2,5-oxadiazol-3-yl)-5-(2,3-dihydroindol-1-ylmethyl)-N-[(4-ethylphenyl)methylideneamino]triazole-4-carboxamide] | > 300
O=C(Nc1ncc(Cc2ccccc2Cl)s1)C1CCCO1 (stereo not given) [Tetrahydro-furan-2-carboxylic acid [5-(2-chloro-benzyl)-thiazol-2-yl]-amide] | 27.6
COC(=O)c1c(N)c(C#N)c2n1CCCCC2 [methyl 2-amino-1-cyano-6,7,8,9-tetrahydro-5H-pyrrolo[1,2-a]azepine-3-carboxylate] | > 300

SMILES | EC50 [µM]
O=[N+]([O-])c1ccc(Cl)cc1NCCCN1CCOCC1 | > 300
CCOC(=O)CSc1ccc2nnc(-c3cccs3)n2n1 [ethyl 2-[(3-thiophen-2-yl-[1,2,4]triazolo[4,3-b]pyridazin-6-yl)sulfanyl]ethanoate] | 4.1
CN1CCc2c(sc3c2C(=O)NC(c2cccs2)N3)C1 (stereo not given) | > 300
COc1ccccc1N1CCN(C(=O)Cn2nnc(-c3ccncc3)n2)CC1 [SMR000003468] | > 300
Cc1ccc(N2CC(C(=O)Nc3c4c(nn3C(C)(C)C)CS(=O)(=O)C4)CC2=O)cc1 (stereo not given) [N-[2-tert-butyl-5,5-bis(oxidanylidene)-4,6-dihydrothieno[3,4-c]pyrazol-3-yl]-1-(4-methylphenyl)-5-oxidanylidene-pyrrolidine-3-carboxamide] | > 300
O=C(CSc1ccc(F)cc1)Nc1ccc(N2CCOCC2)cc1 [2-(4-fluorophenyl)sulfanyl-N-(4-morpholin-4-ylphenyl)ethanamide] | > 300
CCc1ccc(C2CC(c3ccc(C)cc3)Nc3nc(N)nn32)cc1 (stereo not given) | > 300
Cc1[nH]nc2c1C(c1cccs1)C1C(=O)CC(C)(C)CC1=N2 (stereo not given) [3,7,7-trimethyl-4-thiophen-2-yl-2,4,6,8-tetrahydro-1H-pyrazolo[3,4-b]quinolin-5-one] | 1.36
COc1cc(C(=O)NC(=S)N(CCc2ccccc2)CCc2ccccc2)cc(OC)c1OC [N-[bis(2-phenylethyl)carbamothioyl]-3,4,5-trimethoxybenzamide] | > 300
O=C(CCC1CCN(C(=O)c2cc(C(F)(F)F)ccc2Cl)CC1)NC1CC1 [3-[1-[2-chloro-5-(trifluoromethyl)benzoyl]piperidin-4-yl]-N-cyclopropylpropanamide] | > 300
COc1cccc(C(=O)NCC(c2ccco2)N2CCc3ccccc3C2)c1 (stereo not given) [N-[2-(3,4-dihydro-1H-isoquinolin-2-yl)-2-(furan-2-yl)ethyl]-3-methoxy-benzamide] | > 300
CC(CC(=O)Nc1cc(C)ccn1)=NNC(=O)C(=O)NC(C)C [N'-[[4-[(4-methylpyridin-2-yl)amino]-4-oxidanylidene-butan-2-ylidene]amino]-N-propan-2-yl-ethanediamide] | > 300
COc1ccc(-c2nn(-c3ccccc3)cc2/C=C/C(=O)N2CCOCC2)cc1OC [MLS001017845] | > 300
O=C(O)COc1ccc(C(=O)c2ccccc2)cc1 [2-[4-(phenylcarbonyl)phenoxy]ethanoic acid] | > 300
COc1cccc(C(=O)NNC(=O)c2ccccc2)c1 | > 300
Oc1ccc(CN=Nc2ncnc3nc[nH]c23)cc1 [SMR000320358] | > 300
c1ccc(CNc2nc(-c3cccnc3)nc3ccccc23)cc1 | > 300
Cc1ccc(-c2oc3ccccc3c(=O)c2O)cc1 [MLS000114653] | > 300
COc1nc(N(C)C)nc(N(C#N)CCOC(C)=O)n1 [2-[cyano-[4-(dimethylamino)-6-methoxy-1,3,5-triazin-2-yl]amino]ethyl ethanoate] | > 300
Nc1nonc1-n1nnc(C(=O)NN=Cc2ccc(O)cc2)c1CN1CCCCCC1 [1-(4-azanyl-1,2,5-oxadiazol-3-yl)-5-(azepan-1-ylmethyl)-N'-[(4-oxidanylidenecyclohexa-2,5-dien-1-ylidene)methyl]-1,2,3-triazole-4-carbohydrazide] | 1.85
Cn1cc([CH+][N-]NC(=O)COc2ccccc2[N+](=O)[O-])c2ccccc21 [N-[(1-methylindol-3-yl)methylideneamino]-2-(2-nitrophenoxy)acetamide] | > 300
CCCn1nc(NC(=O)CC(C)C)c2cc3ccccc3nc21 [SMR000043522] | > 300

SMILES | EC50 [µM]
COc1ccc2c(c1)-c1c(ssc1=S)C(C)(C)N2 [SMR000116363] | 6.72
c1ccc2c(Nc3nc(-c4ccncc4)nc4ccccc34)cccc2c1 [N-naphthalen-1-yl-2-pyridin-4-ylquinazolin-4-amine] | > 300
COc1ccc(C(=O)c2sc(Nc3ccc(NC(C)=O)cc3)nc2C)cc1 [N-{4-[5-(4-Methoxy-benzoyl)-4-methyl-thiazol-2-ylamino]-phenyl}-acetamide] | > 300
COc1ccccc1Nc1nc(NCc2ccco2)nc(N)c1[N+](=O)[O-] [SMR000436038] | > 300
COc1ccc(-c2nnc3ccc(SCc4ccccc4)nn23)cc1 [3-(4-methoxyphenyl)-6-(phenylmethylsulfanyl)-[1,2,4]triazolo[4,3-b]pyridazine] | 31.7
CC(=O)Nc1ccccc1C(=O)OCc1ccc(C(=O)c2ccccc2)cc1 | > 300
Cc1ccc2nc(-c3ccccc3)cn2c1 [6-methyl-2-phenyl-imidazo[1,2-a]pyridine;hydrobromide] | 29
CC(C)Cn1nc(NC(=O)c2cccs2)c2cc3ccccc3nc21 [N-[1-(2-methylpropyl)-3-pyrazolo[3,4-b]quinolinyl]-2-thiophenecarboxamide] | 21.5
CNCCCOc1cc(C)cc(C)c1C [N-methyl-3-(2,3,5-trimethylphenoxy)propan-1-amine;oxalic acid] | > 300
CC(=O)Nc1c(N)c2ccccc2oc1=O [N-(4-amino-2-oxo-1-benzopyran-3-yl)acetamide] | > 300
N#Cc1c(O)nc(SCC(=O)Nc2nnc(C(F)(F)F)s2)nc1-c1ccccc1 [2-[(5-cyano-4-oxo-6-phenyl-1H-pyrimidin-2-yl)sulfanyl]-N-[5-(trifluoromethyl)-1,3,4-thiadiazol-2-yl]acetamide] | > 300
Fc1ccccc1CSc1nnc(-c2ccccc2)o1 [MLS000063511] | > 300
O=C(Nc1cccc2c1C(=O)NC2=O)c1ccccc1[N+](=O)[O-] [N-(1,3-dioxo-4-isoindolyl)-2-nitrobenzamide] | > 300
CC1(C)CC(=O)C=C(Nc2cccc(O)c2)C1 [MLS000108953] | > 300
CCCCc1c(O)nc(SCC(=O)c2ccccc2)n(-c2ccccc2OC)c1=O [5-Butyl-6-hydroxy-3-(2-methoxy-phenyl)-2-(2-oxo-2-phenyl-ethylsulfanyl)-3H-pyrimidin-4-one] | > 300
CCNc1nc(N)c(C(=C(C#N)C#N)c2ccccc2)s1 | > 300
CSc1nc2ncc3c(n2n1)CC1c2ccccc2CCN1C3=O (stereo not given) [SMR000169664] | 46.3
O=C(Nc1ccc(O)c2c(=O)cc(-c3ccccc3Cl)oc12)c1ccc(Cl)cc1Cl | 9.16
CCOC(=O)c1ccc(/N=c2\sc(C(=O)OC)cc(=O)n2Cc2ccco2)cc1 [methyl 2-(4-ethoxycarbonylphenyl)imino-3-(furan-2-ylmethyl)-4-oxidanylidene-1,3-thiazine-6-carboxylate] | > 300
CNC(=O)c1ccsc1NC(=O)C1CCN(S(=O)(=O)c2ccc(Cl)s2)CC1 [SMR000812824] | > 300
O=C(Nc1cccc(F)c1)Nc1ccccn1 [MLS000111709] | > 300
